What was measured:
[1] = type: physicochemical; details: bitumen extracted from RAP + 5% compound
[2] = TD NMR relaxation time measurements (SE-CPMG, multicomponent fitting); type: physicochemical; details: for 1/<1/T2e>: harmonic average relaxation time of the mobile components
Text: TD NMR, also known as NMR relaxometry, is a known NMR technique and relies on measuring the relaxation times of the nuclear spin system instead of frequency-domain spectra. […] Also, sample preparation is much simpler as there are no concerns about sample homogeneity and no solvents are needed.
Like that, a clear distinction between protons in a solid, amorphous and liquid component can be made with good accuracy.
Bitumen 20/30 was rejuvenated with some of the here claimed rejuvenating agents according to example 1. The pure bitumen 20/30 as well as the rejuvenated bitumen 20/30 samples were then analyzed by TD NMR. To do so, all samples were heated up to 80° C. to allow filling of the samples into NMR tubes. After that, TD NMR measurements at 30° C., 80° C. and 140° C. were conducted using the SE-CMPG sequence. This sequence consists of a solid echo combined with a so-called CPMG (Carr-Purcell-Meiboom-Gill) train of subsequent spin echoes with alternating phase and is capable of recording the decay of coherence in the transverse nuclear magnetization over about 5 orders of magnitude in time. Depending on the measurement temperature, the experimental data were then fitted with semi-empirically selected multicomponent models involving several Gaussian and exponential components:
S(t)=[pg1 exp(−(t/T2g1)^2)+pg2 exp(−(t/T2g2)^2)]+pe1 exp(−t/T2e1)[pe2 exp(−t/T2e2)+pe3 exp(−t/T2e3)]
In order to assess the effect of temperature on the molecular mobility of the bitumen, experiments were conducted at temperatures of 30° C., 80° C. and 140° C., and the following models turned out to provide adequate fits of the respective normalized signal decay curves: • two Gaussians and one exponential at 30° C., • two Gaussians and two exponentials at 80° C., • three exponentials at 140° C.
From the fitting, different values can be obtained: • The p values (pg1, pg2, pe1, pe2 and pe3), indicating the signal fraction of the individual component scaled in the range from 0 to 1 • The T2 values (T2g1, T2g2, T2e1, T2e2 and T2e3), indicating the relaxation times that correspond to each of the individual components. The longer the relaxation time, the higher the molecular mobility of the respective component • In addition to the values T2e1, T2e2 and T2e3, we also calculated the average relaxation time of the mobile components, 1/<1/T2e>, for the temperatures at which more than one mobile component exist (80 and 140° C.). 1/<1/T2e> Is calculated as the harmonic average of the relaxation times involved:
[formula] • The type of the component, those being: • g1: the rigid component • g2: the partially mobile component • e1, e2 and e3: mobile components with increasingly high local molecular mobilities
It is believed that the rigid component g1 is directly correlated with the amount of the asphaltene aggregates. The mobile component(s) on the other hand can be attributed to the maltene phase.

[3] = Softening point of rejuvenated polymer-modified bitumen; type: physicochemical; details: Olexobit 45 + 5% compound
[4] = 30° C., bitumen 20/30 + additive
[5] = 80° C., bitumen 20/30 + additive
[6] = 140° C., bitumen 20/30 + additive

Polypropylenglycol bis glycidylether
η(135° C.) [mPas] [1]: 1,100 mPas
T2e1 [2, 4]: 0.20 ms
T2g1 [2, 4]: 0.016 ms
T2g2 [2, 4]: 0.044 ms
pe1 ([2]; 30° C., mobile component, bitumen 20/30 + additive): 0.41
pg2 ([2]; 30° C., partially mobile component, bitumen 20/30 + additive): 0.18
pg1 ([2]; 30° C., signal fraction of rigid component, bitumen 20/30 + additive): 0.40
T2e1 [2, 5]: 0.47 ms
T2e2 [2, 5]: 2.42 ms
T2g1 [2, 5]: 0.017 ms
T2g2 [2, 5]: 0.053 ms
pe1 [2, 5]: 0.46
pe2 [2, 5]: 0.35
pg1 [2, 5]: 0.10
pg2 [2, 5]: 0.078
1/<1/T2e> ([2]; 80° C.): 0.72 ms
T2e1 [2, 6]: 0.20 ms
T2e2 [2, 6]: 4.45 ms
T2e3 [2, 6]: 24.51 ms
pe1 [2, 6]: 0.18
pe2 [2, 6]: 0.47
pe3 [2, 6]: 0.34
1/<1/T2e> ([2]; 140° C.): 0.94 ms
SP [° C.] [3]: 48.0 °C
